EP4810038A1, “METHOD FOR TREATING ALK-POSITIVE OR ROS1-POSITIVE NON-SMALL CELL LUNG CANCER” (Shenzhen TargetRx Co., Ltd., priority 2023, dated 2025)
Where “and” joins values, the source holds several entries; their conditions need not be identical. Equal values may be shown once. Entries after “also recorded” stand apart in the source; their conditions may differ.

How the values were obtained:
[1] = Phase I clinical trial: safety and tolerability (TRAE, CNS-related AE, DLT, MTD, RP2D); assay type: in vivo
From the text: An adverse event will be described using MedDRA (Medical Dictionary for Regulatory Activities). Analysis of an adverse event will be based on a treatment emergent adverse event (TEAE). TEAE is defined as an adverse event that occur or worsen after a treatment/medication.
Subjects in all the dose groups received a single dose on day 1 (D1), and the blood samples were collected for pharmacokinetic (PK) assay and tolerability observation. […] The administration frequency for the subjects in the subsequent dose groups after entering the multiple-dose period was determined based on the obtained PK and tolerability data. In this trial, the administration frequency for all the subjects could be adjusted throughout the trial based on the continuously acquired safety and PK data. The four lower dose groups (5 mg, 10 mg, 20 mg and 40 mg) used an accelerated titration design, with one subject enrolled in each dose group. […] The 60 mg dose group and the subsequent dose groups followed a "3+3" dose escalation method, and the MTD was determined. […] During the dose escalation, if a dose group was confirmed to have a preliminary antitumor effect and manageable safety (e.g., no DLT occurred in 3 subjects or only 1 out of 6 subjects experienced DLT), the dose level could be expanded after a discussion and confirmation by the researcher and the sponsor.

[2] = tested on: ALK-positive advanced NSCLC who had failed a second-generation ALK inhibitor; assay: Phase II single-arm trial, 60 mg QD: whole-body tumor efficacy (IRC assessment); assay type: in vivo, human
From the text: Variable of the research: whether the subjects achieved objective response (CR/PR) during the treatment, as assessed by the independent review committee (IRC).

[3] = 60mg dose group n=168, any level
[4] = 158 subjects, cutoff May 20, 2024
[5] = whole-body, full analysis set (N=158)

[2H]C([2H])([2H])n1nc2c(c1C#N)-c1cnc(N)c(c1)O[C@H](C)c1cc(F)ccc1C(=O)N(C)C2 [compound A, (10R)-7-amino-12-fluoro-2-(methyl-d3)-10,16-dimethyl-15-oxo-10,15,16,17-tetrahydro-2H-8,4-(metheno)pyrazolo[4,3-h][2,5,11]benzoxadiazacyclotetradecine-3-carbonitrile]
Any TRAE [1, 3]: 159 (94.6) number of cases (%) | TRAE Anemia [1, 3]: 26 (15.5) number of cases (%) | TRAE Diarrhea [1, 3]: 8 (8.2) number of cases (%) | TRAE Edema [1, 3]: 45(22.7) number of cases (%) | TRAE Elevated alanine aminotransferase [1, 3]: 14 (8.3) number of cases (%) | TRAE Elevated creatinine [1, 3]: 11 (6.5) number of cases (%) | TRAE Hypercholesterolemia [1, 3]: 131 (78.0) number of cases (%) | TRAE Hypertriglyceridemia [1, 3]: 124 (73.8) number of cases (%) | TRAE Hyperuricemia [1, 3]: 26 (15.5) number of cases (%) | TRAE Hypoproteinemia [1, 3]: 10 (6.0) number of cases (%) | TRAE Increased AST [1, 3]: 18 (10.7) number of cases (%) | TRAE Increased LDL cholesterol [1, 3]: 45 (26.8) number of cases (%) | TRAE Increased creatine phosphokinase [1, 3]: 9 (5.4) number of cases (%) | TRAE Increased glutamine transferase [1, 3]: 9 (5.4) number of cases (%) | TRAE Increased lipase [1, 3]: 12 (7.1) number of cases (%) | TRAE Peripheral neuropathy [1, 3]: 34(20.2) number of cases (%) | TRAE Positive for occult blood in urine [1, 3]: 13 (7.7) number of cases (%) | TRAE Proteinuria [1, 3]: 7 (7.2) number of cases (%) | TRAE Weight gain [1, 3]: 77 (45.8) number of cases (%) | Any TRAE ([1]; 60mg dose group n=168, ≥3): 61 (36.3%) number of cases (%) | TRAE Anemia ([1]; 60mg dose group n=168, ≥3): 4 (2.4) number of cases (%) | TRAE Diarrhea ([1]; 60mg dose group n=168, ≥3): 0 number of cases (%) | TRAE Edema ([1]; 60mg dose group n=168, ≥3): 2 (1.2) number of cases (%) | TRAE Elevated alanine aminotransferase ([1]; 60mg dose group n=168, ≥3): 0 number of cases (%) | TRAE Elevated creatinine ([1]; 60mg dose group n=168, ≥3): 0 number of cases (%) | TRAE Hypercholesterolemia ([1]; 60mg dose group n=168, ≥3): 17 (10.1) number of cases (%) | TRAE Hypertriglyceridemia ([1]; 60mg dose group n=168, ≥3): 31 (18.5) number of cases (%) | TRAE Hyperuricemia ([1]; 60mg dose group n=168, ≥3): 4 (2.4) number of cases (%) | TRAE Hypoproteinemia ([1]; 60mg dose group n=168, ≥3): 0 number of cases (%) | TRAE Increased AST ([1]; 60mg dose group n=168, ≥3): 0 number of cases (%) | TRAE Increased LDL cholesterol ([1]; 60mg dose group n=168, ≥3): 0 number of cases (%) | TRAE Increased creatine phosphokinase ([1]; 60mg dose group n=168, ≥3): 0 number of cases (%) | TRAE Increased glutamine transferase ([1]; 60mg dose group n=168, ≥3): 2 (1.2) number of cases (%) | TRAE Increased lipase ([1]; 60mg dose group n=168, ≥3): 1 (0.6) number of cases (%) | TRAE Peripheral neuropathy ([1]; 60mg dose group n=168, ≥3): 1 (0.6) number of cases (%) | TRAE Positive for occult blood in urine ([1]; 60mg dose group n=168, ≥3): 0 number of cases (%) | TRAE Proteinuria ([1]; 60mg dose group n=168, ≥3): 0 number of cases (%) | TRAE Weight gain ([1]; 60mg dose group n=168, ≥3): 11 (6.5) number of cases (%) | dose interruption or dose reduction due to treatment-related CNS AEs ([1]; 198 patients): no dose interruption or dose reduction was observed | most common TRAEs ([1]; 198 patients): hypercholesterolemia, hypertriglyceridemia, or weight gain | patients with grade ≥ 3 treatment-related CNS AEs ([1]; 198 patients): 1.0% | Any CNS-related AE ([1]; Any level): 18 (9.1) number of cases (%) | CNS-related AE: Anger ([1]; Any level): 1 (0.5) number of cases (%) | CNS-related AE: Cognitive impairment ([1]; Any level): 1 (0.5) number of cases (%) | CNS-related AE: Depression ([1]; Any level): 3 (1.5) number of cases (%) | CNS-related AE: Disorganized speech ([1]; Any level): 1 (0.5) number of cases (%) | CNS-related AE: Impact on cognition ([1]; Any level): 5 (2.5) number of cases (%) | CNS-related AE: Impact on emotion ([1]; Any level): 4 (2.0) number of cases (%) | CNS-related AE: Impact on language ([1]; Any level): 2 (1.0) number of cases (%) | CNS-related AE: Impact on sleep ([1]; Any level): 7 (4.5) number of cases (%) | CNS-related AE: Insomnia ([1]; Any level): 1 (0.5) number of cases (%) | CNS-related AE: Memory impairment ([1]; Any level): 3 (1.5) number of cases (%) | CNS-related AE: Mental disorder ([1]; Any level): 1 (0.5) number of cases (%) | CNS-related AE: Poor sleep quality ([1]; Any level): 6 (4.0) number of cases (%) | CNS-related AE: Speech disorder ([1]; Any level): 1 (0.5) number of cases (%) | Any TRAE ([1]; In total n=198, any level): 184 (92.9%) number of cases (%) | TRAE Anemia ([1]; In total n=198, any level): 27 (13.6) number of cases (%) | TRAE Diarrhea ([1]; In total n=198, any level): 13 (6.6) number of cases (%) | TRAE Edema ([1]; In total n=198, any level): 51(25.8) number of cases (%) | TRAE Elevated alanine aminotransferase ([1]; In total n=198, any level): 18 (9.1) number of cases (%) | TRAE Elevated creatinine ([1]; In total n=198, any level): 12 (6.1) number of cases (%) | TRAE Hypercholesterolemia ([1]; In total n=198, any level): 154 (77.8) number of cases (%) | TRAE Hypertriglyceridemia ([1]; In total n=198, any level): 147 (74.2) number of cases (%) | TRAE Hyperuricemia ([1]; In total n=198, any level): 27 (13.6) number of cases (%) | TRAE Hypoproteinemia ([1]; In total n=198, any level): 10 (5.1) number of cases (%) | TRAE Increased AST ([1]; In total n=198, any level): 20 (10.1) number of cases (%) | TRAE Increased LDL cholesterol ([1]; In total n=198, any level): 51 (25.8) number of cases (%) | TRAE Increased creatine phosphokinase ([1]; In total n=198, any level): 11 (5.6) number of cases (%) | TRAE Increased glutamine transferase ([1]; In total n=198, any level): 10 (5.1) number of cases (%) | TRAE Increased lipase ([1]; In total n=198, any level): 19 (9.6) number of cases (%) | TRAE Peripheral neuropathy ([1]; In total n=198, any level): 38(19.2) number of cases (%) | TRAE Positive for occult blood in urine ([1]; In total n=198, any level): 13 (6.6) number of cases (%) | TRAE Proteinuria ([1]; In total n=198, any level): 10 (5.1) number of cases (%) | TRAE Weight gain ([1]; In total n=198, any level): 91 (46.0) number of cases (%) | Any TRAE ([1]; In total n=198, ≥3): 73 (36.9%) number of cases (%) | TRAE Anemia ([1]; In total n=198, ≥3): 4 (2.0) number of cases (%) | TRAE Diarrhea ([1]; In total n=198, ≥3): 0 number of cases (%) | TRAE Edema ([1]; In total n=198, ≥3): 3(1.5) number of cases (%) | TRAE Elevated alanine aminotransferase ([1]; In total n=198, ≥3): 0 number of cases (%) | TRAE Elevated creatinine ([1]; In total n=198, ≥3): 0 number of cases (%) | TRAE Hypercholesterolemia ([1]; In total n=198, ≥3): 18 (9.1) number of cases (%) | TRAE Hypertriglyceridemia ([1]; In total n=198, ≥3): 38 (19.2) number of cases (%) | TRAE Hyperuricemia ([1]; In total n=198, ≥3): 4 (2.0) number of cases (%) | TRAE Hypoproteinemia ([1]; In total n=198, ≥3): 0 number of cases (%) | TRAE Increased AST ([1]; In total n=198, ≥3): 0 number of cases (%) | TRAE Increased LDL cholesterol ([1]; In total n=198, ≥3): 0 number of cases (%) | TRAE Increased creatine phosphokinase ([1]; In total n=198, ≥3): 0 number of cases (%) | TRAE Increased glutamine transferase ([1]; In total n=198, ≥3): 2 (1.0) number of cases (%) | TRAE Increased lipase ([1]; In total n=198, ≥3): 1 (0.5) number of cases (%) | TRAE Peripheral neuropathy ([1]; In total n=198, ≥3): 1(0.5) number of cases (%) | TRAE Positive for occult blood in urine ([1]; In total n=198, ≥3): 0 number of cases (%) | TRAE Proteinuria ([1]; In total n=198, ≥3): 0 number of cases (%) | TRAE Weight gain ([1]; In total n=198, ≥3): 14 (7.1) number of cases (%) | incidence of other AE, 60 mg dose group versus 80 mg dose group ([1]; dose escalation and dose expansion phases): significantly lower | dose-limiting toxicity (DLT) ([1]; dose escalation phase, 5 to 125 mg): No DLT was observed; also recorded: No dose-limiting toxicity was observed | MTD ([1]; dose escalation up to 125 mg): not reached | Any CNS-related AE ([1]; ≥3): 2 (1.0) number of cases (%) | CNS-related AE: Anger ([1]; ≥3): 0 number of cases (%) | CNS-related AE: Cognitive impairment ([1]; ≥3): 0 number of cases (%) | CNS-related AE: Depression ([1]; ≥3): 0 number of cases (%) | CNS-related AE: Disorganized speech ([1]; ≥3): 0 number of cases (%) | CNS-related AE: Impact on cognition ([1]; ≥3): 1 (0.5) number of cases (%) | CNS-related AE: Impact on language ([1]; ≥3): 1 (0.5) number of cases (%) | CNS-related AE: Insomnia ([1]; ≥3): 0 number of cases (%) | CNS-related AE: Memory impairment ([1]; ≥3): 0 number of cases (%) | CNS-related AE: Mental disorder ([1]; ≥3): 1 (0.5) number of cases (%) | CNS-related AE: Poor sleep quality ([1]; ≥3): 0 number of cases (%) | CNS-related AE: Speech disorder ([1]; ≥3): 1 (0.5) number of cases (%) | median DOR [2, 4]: not yet reached | median PFS [2, 4]: 11.14 months | median TTR [2, 4]: 1.38 months | ORR ([2]; subgroup ECOG PS score of 0 at baseline, FAS): 50.0% | ORR ([2]; subgroup ECOG PS score of 1 to 2 at baseline, FAS): 40.8% | ORR ([2]; subgroup age < 65 years old, FAS): 43.0% | ORR ([2]; subgroup age ≥ 65 years old, FAS): 40.0% | ORR ([2]; subgroup female, FAS): 42.9% | ORR ([2]; subgroup male, FAS): 41.9% | ORR ([2]; subgroup never received chemotherapy, FAS): 45.4% | ORR ([2]; subgroup previously received chemotherapy, FAS): 37.7% | ORR ([2]; subgroup with a smoking history, FAS): 38.6% | ORR ([2]; subgroup with brain metastases at baseline, FAS): 45.3% | ORR ([2]; subgroup without a smoking history, FAS): 39.4% | ORR ([2]; subgroup without brain metastases at baseline, FAS): 38.9% | BOR CR [2, 5]: 0 n (%) | BOR NE [2, 5]: 2 (1.3) n (%) | BOR PD [2, 5]: 25 (15.8) n (%) | BOR PR [2, 5]: 67 n (%) and 67 (42.4) n (%) | BOR SD [2, 5]: 64 (40.5) n (%) | DCR [2, 5]: 131 (82.9) n (%) | ORR [2, 5]: 67 n (%) and 67 (42.4) n (%)
